From ChEMBL document CHEMBL2384916, “Synthesis and in vitro evaluation of a PDT active BODIPY-NLS conjugate” (Bioorg Med Chem Lett, 2013)

Columns and labels:
[1] = Drug uptake in nucleus of human T24 cells at 100 nM after 30 mins by confocal microscopic analysis; type: ADME, cell-based; details: t-24, 0.5 h, 0.1 µM
[2] = tested on: T-24; assay: Phototoxicity against human T24 cells assessed as growth inhibition incubated for 4 hrs followed by irradiation for 15 mins measured after 24 hrs by MTT assay; type: functional, cell-based; details: T-24, light or radiation study
[3] = tested on: T-24; assay: Cytotoxicity against human T24 cells assessed as growth inhibition after 24 hrs by MTT assay in absence of light; type: cell-based; details: T-24, 24 h
[4] = Drug uptake in lysosome of human T24 cells at 100 nM after 30 mins by confocal microscopic analysis; type: ADME, cell-based; details: t-24, 0.5 h, 0.1 µM
[5] = Drug uptake in endoplasmic reticulum of human T24 cells at 100 nM after 30 mins by confocal microscopic analysis; type: ADME, cell-based; details: t-24, 0.5 h, 0.1 µM

Drug uptake [1]	Drug uptake [4]	Drug uptake [5]	SMILES	IC50 [2] [µM]	IC50 [3] [µM]
Not Active	Active	Active	CC1=C(I)C(C)=[N+]2C1=C(c1ccc(-c3cn(CC(=O)N4CCC[C@H]4C(=O)N[C@@H](CCCCN)C(=O)N[C@@H](CCCCN)C(=O)N[C@@H](CCCCN)C(=O)N[C@@H](CCCNC(=N)N)C(=O)N[C@@H](CCCCN)C(=O)N[C@H](C(N)=O)C(C)C)nn3)cc1)c1c(C)c(I)c(C)n1[B-]2(F)F	0.016	> 10
Not Active	Active	Not Active	CC1=C(I)C(C)=[N+]2C1=C(c1ccc(-c3cn(CC(=O)OC(C)(C)C)nn3)cc1)c1c(C)c(I)c(C)n1[B-]2(F)F	0.042	> 10
